Results taken from patent US5444057A, “Carbapenem-antibiotic compounds” (Zeneca Limited, priority 1992, dated 1995).
Converted amounts (≈) assume the structure as drawn.

What was measured:
[1] = tested on: bacteria; conditions: cited from earlier work
[2] = tested on: Enterobacter cloacae P99-; experiment: MIC by agar dilution, Enterobacter cloacae P99-; type: cell-based
Excerpt: (§1) The antibacterial activity is described in terms of the minimum inhibitory concentration (MIC) determined by the agar-dilution technique with an inoculum size of 10^4 CFU/spot.

[3] = tested on: S. aureus Oxford; experiment: MIC by agar dilution, S. aureus Oxford; type: cell-based; conditions: Staphylococcus aureus, Diagnostic Sensitivity Test, inoculum 10^4 CFU/spot
Excerpt: as §1

[4] = tested on: B. fragilis AMP S; experiment: MIC by agar dilution, B. fragilis AMP S; type: cell-based; conditions: Bacteroides fragilis, Diagnostic Sensitivity Test, inoculum 10^4 CFU/spot
Excerpt: as §1

[5] = tested on: P. morganii I + 001; experiment: MIC by agar dilution, P. morganii I + 001; type: cell-based; conditions: Morganella morganii, Diagnostic Sensitivity Test, inoculum 10^4 CFU/spot
Excerpt: as §1

[6] = tested on: E. coli DCO; experiment: MIC by agar dilution, E. coli DCO; type: cell-based; conditions: Escherichia coli, Diagnostic Sensitivity Test, inoculum 10^4 CFU/spot
Excerpt: as §1

## C[C@@H](O)[C@H]1C(=O)N2C(C(=O)O)=C(SCCN=CN)C[C@H]12 [imipenem, N-formimidoyl thienamycin]
[1]
  antibacterial activity: broad spectrum of antibacterial activity

## C[C@@H](O)[C@H]1C(=O)N2C(C(=O)O)=C(S[C@@H]3CN[C@H](C(=O)Nc4ccc(C(=O)O)cn4)C3)[C@H](C)[C@H]12 [Example 4, (1R,5R,6S,8S,2'S,4'S)-2-(2-(5-Carboxy-2-pyridylcarbamoyl)pyrrolidin-4-ylthio)-6-(1-hydroxyethyl)-1-methylcarbapenem-3-carboxylic acid]
[2]
  MIC: 0.02 µg/mL (≈ 0.042 µM)
[3]
  MIC: 0.13 µg/mL (≈ 0.273 µM)
[4]
  MIC: 0.25 µg/mL (≈ 0.525 µM)
[5]
  MIC: 0.02 µg/mL
[6]
  MIC: 0.02 µg/mL (≈ 0.042 µM)
